One data set deals with FDCP1-parental. Briefly: FDCP1 cell-based model, parental cells. Also on record: species or system murine.
Data set [1] addresses T1, LMTK3 (Homo sapiens, UniProt Q96Q04).
T1 construct: endogenous in cells; host or cells: MCF7, T47D, MDA-MB-231
T1 sequence (Q96Q04 21-1460): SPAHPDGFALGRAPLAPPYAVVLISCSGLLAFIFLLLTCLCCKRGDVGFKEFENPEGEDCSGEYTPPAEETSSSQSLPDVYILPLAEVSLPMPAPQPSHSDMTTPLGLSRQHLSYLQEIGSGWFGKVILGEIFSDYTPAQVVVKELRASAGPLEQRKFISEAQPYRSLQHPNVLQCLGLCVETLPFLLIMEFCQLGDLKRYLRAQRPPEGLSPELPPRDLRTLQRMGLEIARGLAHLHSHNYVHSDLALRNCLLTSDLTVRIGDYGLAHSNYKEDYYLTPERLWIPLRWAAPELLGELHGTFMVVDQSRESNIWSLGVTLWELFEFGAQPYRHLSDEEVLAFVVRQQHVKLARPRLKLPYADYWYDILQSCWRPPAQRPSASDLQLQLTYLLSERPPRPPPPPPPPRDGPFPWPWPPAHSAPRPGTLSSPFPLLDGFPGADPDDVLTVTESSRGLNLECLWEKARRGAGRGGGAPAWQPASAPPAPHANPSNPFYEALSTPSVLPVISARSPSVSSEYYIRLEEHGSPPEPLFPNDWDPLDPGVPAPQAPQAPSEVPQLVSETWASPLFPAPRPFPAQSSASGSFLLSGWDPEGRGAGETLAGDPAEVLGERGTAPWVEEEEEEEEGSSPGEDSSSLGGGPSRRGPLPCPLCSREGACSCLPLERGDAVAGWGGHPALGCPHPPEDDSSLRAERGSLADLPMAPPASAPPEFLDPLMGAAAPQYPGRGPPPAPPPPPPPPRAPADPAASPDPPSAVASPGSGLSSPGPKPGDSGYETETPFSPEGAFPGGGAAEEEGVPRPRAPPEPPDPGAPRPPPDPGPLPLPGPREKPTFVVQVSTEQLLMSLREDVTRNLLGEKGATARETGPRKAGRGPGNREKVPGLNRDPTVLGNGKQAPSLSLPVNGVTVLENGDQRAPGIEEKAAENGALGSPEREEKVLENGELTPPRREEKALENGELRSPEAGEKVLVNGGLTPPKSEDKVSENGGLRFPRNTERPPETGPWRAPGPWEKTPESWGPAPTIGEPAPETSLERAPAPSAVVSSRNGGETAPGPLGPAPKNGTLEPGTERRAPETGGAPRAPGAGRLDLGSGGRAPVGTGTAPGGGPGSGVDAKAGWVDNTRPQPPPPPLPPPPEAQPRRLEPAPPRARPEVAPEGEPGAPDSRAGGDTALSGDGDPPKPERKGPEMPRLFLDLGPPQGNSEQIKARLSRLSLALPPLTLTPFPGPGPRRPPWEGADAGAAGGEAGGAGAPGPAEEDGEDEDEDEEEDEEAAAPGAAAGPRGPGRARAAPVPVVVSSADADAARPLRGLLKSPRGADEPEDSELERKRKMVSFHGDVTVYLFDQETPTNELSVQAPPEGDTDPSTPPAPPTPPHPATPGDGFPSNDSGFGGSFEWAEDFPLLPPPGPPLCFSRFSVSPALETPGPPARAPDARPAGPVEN
Kind of data set: Western blotting of LMTK3 protein in BC cell lines. It counts as cell-based. Background: In western blotting, separated proteins are transferred to a membrane and probed.

In another data set the test system is ERα. Briefly: Western blotting of ERα protein in BC cell lines. It is filed as cell-based, human. The following applies: MCF7, T47D, MDA-MB-231.
The nature of data set [2]: Pharmacokinetics after single IV, IP or PO dose. It counts as in vivo, mice.
The target of data set [3] is T2, LMTK3 (Homo sapiens, UniProt Q96Q04).
T2 construct: The wt kinase domain of LMTK3 (aa 134 to aa 444) was cloned into pOPINEneo; made in house; host or cells: Spodoptera frugiperda Sf9 (baculovirus)
T2 sequence (Q96Q04 105-415): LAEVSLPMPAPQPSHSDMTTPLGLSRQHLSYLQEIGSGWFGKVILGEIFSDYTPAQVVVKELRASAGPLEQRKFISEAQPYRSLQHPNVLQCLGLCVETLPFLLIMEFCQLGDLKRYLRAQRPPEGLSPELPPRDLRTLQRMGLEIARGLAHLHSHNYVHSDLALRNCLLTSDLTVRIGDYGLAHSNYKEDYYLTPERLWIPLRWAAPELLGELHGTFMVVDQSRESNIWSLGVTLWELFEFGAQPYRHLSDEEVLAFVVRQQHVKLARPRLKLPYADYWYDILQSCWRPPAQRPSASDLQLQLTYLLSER
Kind of data set: 32P γ-ATP in vitro kinase assay, phosphorylation of HSP27 by LMTK3. It counts as biochemical. The settings on record: in vitro kinase assay; read-out: Approximate IC50.

Like-named read-outs stand apart in the source and are kept apart here. Where a SMILES comes first, the peptide text is derived from it. The star is where a group is joined. Cbz = O=C(OCc1ccccc1)*

The values that follow come from patent US20230355617A1, “SMALL MOLECULE INHIBITORS OF LEMUR TYROSINE KINASE 3” (The University of Sussex, priority 2020, published 2023).

Broadly, the IC50 is the concentration that gives 50% inhibition. Usually Cmax stands for the highest concentration seen after dosing.

Regarding `Cc1ccc(-c2ccc3ncc(-c4cccc(OC(F)(F)F)c4)n3n2)cc1`, the IC50 in the data set on FDCP1-parental (Mus musculus, FDC-P1; read-out: FDCP1-parental IC50) was greater than 10 µM.
For `FC(F)(F)Oc1cccc(-c2cnc3ccc(Cl)nn23)c1`, the IC50 in the data set with FDCP1-parental (Mus musculus, FDC-P1, read-out: FDCP1-parental IC50) was greater than 10 µM.
As for `CC(C)C[C@@H](C=O)NC(=O)[C@H](CC(C)C)NC(=O)[C@H](CC(C)C)NC(=O)OCc1ccccc1` [MG132, reference compound] (Cbz-Leu-Leu-Leu-aldehyde), at LMTK3 [1] (10 μM MG132 4 h, then 10 μM C28 24 h), the “effect on C28-induced downregulation of LMTK3” value is given as “able to prevent C28-induced downregulation of LMTK3”.
Consider `FC(F)(F)Oc1cccc(-c2cnc3ccc(-c4ccncc4)nn23)c1` [Compound C28, 6-(Pyridin-4-yl)-3-(3-(trifluoromethoxy)phenyl)imidazo[1,2-b]pyridazine], for which the “inhibition of LMTK3 protein levels in cancer cell lines” value against LMTK3 [1] (MCF7, T47D, MDA-MB-231) is given as “best inhibitor”. In addition, the LMTK3 protein levels entry on LMTK3 [1] (MCF7, T47D, MDA-MB-231, increasing concentrations, different time points) was “time and dose-dependent degradation of LMTK3”. Moreover, the LMTK3 ubiquitination result on LMTK3 [1] (MCF7, 10 μM, 24 h) is reported as “increased LMTK3 ubiquitination”. Moreover, the ERα protein levels result in the data set with ERα is on record as “decreased protein levels of ERα”. The Cmax is 839 ng/mL in data set [2] (IP 10 mg/kg); 185 ng/mL in data set [2] (IV 1 mg/kg); 1533 ng/mL in data set [2] (IV 5 mg/kg, plasma); 632 ng/mL in data set [2] (PO). For the same molecule, the figures for the T1/2 in data set [2] (IP 10 mg/kg), in data set [2] (IV 5 mg/kg) and in data set [2] (PO) were roughly 59 min, roughly 10 min and roughly 62 min, respectively. The “lethality of IV dose” value in data set [2] (IV 5 mg/kg) is “lethal for some mice”. Besides, the “time of peak concentration” value in data set [2] (IV 5 mg/kg, plasma) is 5 min. Besides, the “peroral bioavailability (F)” value in data set [2] (based on incomplete data from 5 mg/kg IV group) stood at 54%.
Regarding `FC(F)(F)Oc1cccc(-c2cnc3ccc(-c4ccccn4)nn23)c1` [Compound 337-1], the IC50 on LMTK3 [3] was 0.4 µM.
